The text below walks through data of patent US12599561B2, “Localized immunosuppression of allografts for peripheral nerve repair” (UNIVERSITY OF WYOMING, priority 2018, dated 2026).

SMILES strings stand for the structures.

In one data set the test system is immune cells. The note with it: cited from earlier work.
Data set [1] deals with DRGs, motor neurons, and Schwann cells. The following applies: 72 h. Here is the method:
It is contemplated that delivery of immunosuppressive agents function within a favorable therapeutic window. PNs are comprised of three major nervous system cell types, motor neurons, sensory neurons, and Schwann cells. […] FIG. 1B illustrates data regarding the toxicity of tacrolimus to DRGs, motor neurons, and Schwann cells. FIG. 1C illustrates data regarding the toxicity of prednisolone to DRGs, motor neurons, and Schwann cells.
Cells (DRGs, motor neurons, and Schwann cells) were cultured for 72 hours in various concentration of the immunosuppressive drugs and viability was evaluated using the Alamar blue viability assay. ISV's were diluted into media using a maximum of 1% dimethylsulfoxide (DMSO).
FIG. 2B illustrates data regarding the viability of DRGs, motor neurons, and Schwann cells cultured in about 10 μM tracrolimus with differing concentrations of prednisolone.

In the case of `C[C@]12C=CC(=O)C=C1CC[C@@H]1[C@@H]2[C@@H](O)C[C@@]2(C)[C@H]1CC[C@]2(O)C(=O)CO` [Prednisolone, prednisolone], in the data set on immune cells, the “effective dose for inhibiting activation and proliferation of immune cells” value is “greater than 240 μM”; the “in vitro effective concentration on immune cells” value is given as 240 nM. For the same molecule, in data set [1], the “Measures in vitro tolerated concentrations on PN cells” value was found to be 200 µM and the “dose tolerated by the cells (up to)” value is “about 200 μM”.
Take `C=CC[C@@H]1/C=C(\C)C[C@H](C)C[C@H](OC)[C@H]2O[C@@](O)(C(=O)C(=O)N3CCCC[C@H]3C(=O)O[C@H](/C(C)=C/[C@@H]3CC[C@@H](O)[C@H](OC)C3)[C@H](C)[C@@H](O)CC1=O)[C@H](C)C[C@@H]2OC` [Tacrolimus, tacrolimus]: in the data set on immune cells, the “effective dose for inhibiting activation and proliferation of immune cells” value was 50 to 100 µM; the “in vitro effective concentration on immune cells” value is 0.5 to 1.0 nM. Besides, in data set [1], the “Measures in vitro tolerated concentrations on PN cells” value was in the range of 10 to 25 µM and the “dose tolerated by the cells (up to)” value lay in the range of 10 to 25 µM.
